Data taken from the NIST ThermoML archive (doi:10.1021/je900915p).

Tests used:
[1] = 298.15 K, 101.33 kPa, Liquid; for viscosity: Capillary tube (Ostwald / Ubbelohde) method
[2] = mn = molality of the nth substance listed, in mol/kg; settings: 298.15 K, 101 kPa, Liquid; for speed of sound: Pulse-echo method
[3] = xn = mol fraction of the nth substance listed; settings: 298.15 K, 101 kPa, Liquid; for viscosity: Capillary tube (Ostwald / Ubbelohde) method

N#CCCCCC#N [hexanedinitrile]
[1]
Settings	mass density [kg/m3]	viscosity [mPa·s]
–	975.26	5.99

CC#N [acetonitrile]
[1]
Settings	mass density [kg/m3]	viscosity [mPa·s]
–	776.85	0.341

CCCC[N+](CCCC)(CCCC)CCCC.[O-][Cl+3]([O-])([O-])[O-] [tetrabutylammonium perchlorate] + CC#N
[2]
Settings	mass density [kg/m3]	speed of sound [m/s]
m1 = 0.02616	783.32	1272.4
m1 = 0.04068	786.97	1273.2
m1 = 0.06312	792.62	1275.2
m1 = 0.09762	801.31	1276.8
m1 = 0.1502	814.61	1278.2

N#CCCCCC#N [hexanedinitrile] + CC#N
[3]
Settings	mass density [kg/m3]	viscosity [mPa·s]
x2 = 0.5	892.51	1.61
x2 = 0.6	880	1.41
x2 = 0.7	870	1.057
x2 = 0.8	848.59	0.684
x2 = 0.9	818.58	0.506

O=[N+]([O-])[O-].[Ag+] [silver nitrate] + CC#N
[2]
Settings	mass density [kg/m3]	speed of sound [m/s]
m1 = 0.0283	785.04	1272
m1 = 0.04474	789.86	1273.5
m1 = 0.06947	797.11	1275.3
m1 = 0.09727	805.38	1277.7
m1 = 0.1285	814.46	1279.5

CC#N.CC#N.CC#N.CC#N.[Cu+].[O-][Cl+3]([O-])([O-])[O-] [tetraacetonitrile copper perchlorate] + CC#N
[2]
Settings	mass density [kg/m3]	speed of sound [m/s]
m1 = 0.02538	787.25	1272.1
m1 = 0.03962	793.19	1273.7
m1 = 0.0589	801.28	1275
m1 = 0.08537	812.53	1276.7
m1 = 0.1254	828.76	1278.5

CC#N [acetonitrile] + N#CCCCCC#N
[3], x1 = 1
Settings	mass density [kg/m3]	viscosity [mPa·s]
–	776.85	0.341

Cc1ccc2ccc3ccc(C)nc3c2n1.Cc1ccc2ccc3ccc(C)nc3c2n1.[Cu+2].[O-][Cl+3]([O-])([O-])[O-].[O-][Cl+3]([O-])([O-])[O-] [bis-(2,9-dimethyl-1,10-phenanthroline) copper perchlorate] + CC#N
[2]
Settings	mass density [kg/m3]	speed of sound [m/s]
m1 = 0.02474	792.91	1273.2
m1 = 0.03841	801.84	1274.5
m1 = 0.05937	815.69	1275.9
m1 = 0.08169	830.27	1277.3
m1 = 0.1218	857.14	1279.7

CCCC[N+](CCCC)(CCCC)CCCC.O=[N+]([O-])[O-] [tetrabutylammonium nitrate] + CC#N
[2]
Settings	mass density [kg/m3]	speed of sound [m/s]
m1 = 0.02174	781.56	1272.7
m1 = 0.04144	785.96	1273.7
m1 = 0.06482	791.21	1275.2
m1 = 0.08753	796.37	1276.6
m1 = 0.1139	802.45	1279.3
